In patent US20260374739A1, “SMALL MOLECULAR WEIGHT CHEMICAL COMPOUND TO ANTAGONIZE EPH-EPHRIN TETRAMERIZATION AND INHIBIT BIDIRECTIONAL SIGNALING” (THE BOARD OF REGENTS OF THE UNIVERSITY OF TEXAS SYSTEM, priority 2022, published 2026):
Several values for one entry are separate records, joined by “and”; a condition that tells them apart may be missing. Equal values may be shown once. Entries after “also recorded” stand apart in the source; their conditions may differ. Marks after values point to notes of the source that are not given here.

Legend:
EphrinB2-EphB2 [1] = molecular target: T1, EphrinB2-EphB2 (Homo sapiens, UniProt P29323); assay: Octet 80 sec association/500 sec dissociation, immobilized human EphrinB2-Fc binding to soluble human EphB2-His; settings: immobilized human EphrinB2, 25 nM soluble human EphB2; for EphB2 Inhibition Percent, Inhibition of Association ONLY: at 3.2 μM and 80 seconds; for EphB2 Inhibition Percent, Inhibition of Association-Dissociation: at 3.2 μM and 580 seconds
T1 construct: soluble human EphB1-His, EphB2-His, and EphB4-His ectodomains; commercially available human EphrinB1-Fc (EB1), EphrinB2-Fc (EB2), and EphrinB3-Fc (EB3) ectodomain proteins; purchased
T1 sequence (P29323 19-543 limits assumed): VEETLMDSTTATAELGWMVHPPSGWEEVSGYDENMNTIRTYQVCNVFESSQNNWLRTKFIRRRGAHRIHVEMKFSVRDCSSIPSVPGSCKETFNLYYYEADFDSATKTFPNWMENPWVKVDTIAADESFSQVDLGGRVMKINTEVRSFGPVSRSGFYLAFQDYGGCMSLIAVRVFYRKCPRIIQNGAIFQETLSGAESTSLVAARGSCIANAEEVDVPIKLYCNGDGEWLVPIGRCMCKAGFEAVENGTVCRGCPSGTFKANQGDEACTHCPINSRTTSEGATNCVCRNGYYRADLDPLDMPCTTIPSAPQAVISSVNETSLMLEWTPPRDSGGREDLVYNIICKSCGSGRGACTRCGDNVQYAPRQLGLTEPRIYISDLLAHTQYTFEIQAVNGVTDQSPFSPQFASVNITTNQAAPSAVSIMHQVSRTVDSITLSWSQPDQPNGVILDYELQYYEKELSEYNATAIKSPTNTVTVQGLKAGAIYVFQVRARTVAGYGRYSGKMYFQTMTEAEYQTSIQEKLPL
Outline: (§1)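 EphrinB2-Fc captured on AHC biosensors, then soluble His-tagged EphB ectodomain (25 nM for % inhibition runs) associated 80 s and dissociated 500 s in PBS, 0.05% Tween-20, 1% DMSO ± compound. Compounds tested at 0.1–3.2 μM with a 10 μM max standard; IC50 from AUC of full traces or at 75 s and 135 s.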

EphrinB2-EphB2 [2] = molecular target: T1, EphrinB2-EphB2; assay: Octet tetramerization inhibition, immobilized human EphrinB2 binding to 50 nM soluble human EphB2
EphrinB2-EphB4 = molecular target: T2, EphrinB2-EphB4 (Homo sapiens, UniProt P54760); assay: Octet 80 sec association/500 sec dissociation, immobilized human EphrinB2-Fc binding to soluble human EphB4-His; settings: for EphB4 Inhibition Percent, Inhibition of Association ONLY: at 3.2 μM and 80 seconds; for EphB4 Inhibition Percent, Inhibition of Association ONLY / EphB4 Inhibition Percent, Inhibition of Association-Dissociation: immobilized human EphrinB2, 25 nM soluble human EphB4; for EphB4 Inhibition Percent, Inhibition of Association-Dissociation: at 3.2 μM and 580 seconds
T2 construct: soluble human EphB1-His, EphB2-His, and EphB4-His ectodomains; commercially available human EphrinB1-Fc (EB1), EphrinB2-Fc (EB2), and EphrinB3-Fc (EB3) ectodomain proteins; purchased
T2 sequence (P54760 16-539 limits assumed): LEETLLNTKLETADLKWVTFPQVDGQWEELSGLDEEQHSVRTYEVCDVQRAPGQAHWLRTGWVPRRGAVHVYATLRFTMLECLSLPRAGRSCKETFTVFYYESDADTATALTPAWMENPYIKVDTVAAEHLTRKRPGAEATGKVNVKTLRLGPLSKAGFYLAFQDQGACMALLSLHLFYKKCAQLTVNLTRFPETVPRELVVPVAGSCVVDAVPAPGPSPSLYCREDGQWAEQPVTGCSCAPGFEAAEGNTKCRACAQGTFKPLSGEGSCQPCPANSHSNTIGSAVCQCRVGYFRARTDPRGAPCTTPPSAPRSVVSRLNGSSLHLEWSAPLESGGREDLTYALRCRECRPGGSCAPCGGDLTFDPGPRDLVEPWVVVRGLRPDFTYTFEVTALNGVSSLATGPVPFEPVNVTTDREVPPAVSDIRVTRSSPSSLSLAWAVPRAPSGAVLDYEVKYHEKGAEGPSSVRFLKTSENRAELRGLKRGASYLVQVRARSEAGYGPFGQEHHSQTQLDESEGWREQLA
Outline: as §1

EphrinB2-EphB1 = molecular target: T3, EphrinB2-EphB1 (Homo sapiens, UniProt P54762); assay: Octet 80 sec association/500 sec dissociation, immobilized human EphrinB2-Fc binding to soluble human EphB1-His; settings: immobilized human EphrinB2, 25 nM soluble human EphB1; for EphB1 Inhibition Percent, Inhibition of Association ONLY: at 3.2 μM and 80 seconds; for EphB1 Inhibition Percent, Inhibition of Association-Dissociation: at 3.2 μM and 580 seconds
T3 construct: soluble human EphB1-His, EphB2-His, and EphB4-His ectodomains; commercially available human EphrinB1-Fc (EB1), EphrinB2-Fc (EB2), and EphrinB3-Fc (EB3) ectodomain proteins; purchased
T3 sequence (P54762 18-540 limits assumed): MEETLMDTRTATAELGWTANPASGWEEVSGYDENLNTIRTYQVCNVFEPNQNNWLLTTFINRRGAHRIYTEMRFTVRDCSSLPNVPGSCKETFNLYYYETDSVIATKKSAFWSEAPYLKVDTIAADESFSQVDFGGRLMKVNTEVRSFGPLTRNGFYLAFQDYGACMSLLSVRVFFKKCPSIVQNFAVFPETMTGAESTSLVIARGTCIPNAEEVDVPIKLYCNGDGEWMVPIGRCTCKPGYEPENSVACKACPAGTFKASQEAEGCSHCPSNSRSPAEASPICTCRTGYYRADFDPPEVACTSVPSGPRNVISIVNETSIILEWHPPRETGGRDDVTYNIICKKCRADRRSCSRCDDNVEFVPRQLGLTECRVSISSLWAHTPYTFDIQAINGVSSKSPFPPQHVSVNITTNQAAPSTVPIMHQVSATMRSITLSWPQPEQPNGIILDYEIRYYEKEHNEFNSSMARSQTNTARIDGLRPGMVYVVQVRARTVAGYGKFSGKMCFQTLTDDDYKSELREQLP
Outline: as §1

[3] = Absolute Association IC50 (300 sec), Table A, EphrinB2-EphB2
[4] = Absolute Dissociation IC50 (450 sec), Table A, EphrinB2-EphB2
[5] = Relative AUC/IC50, Table A, EphrinB2-EphB2, compound 7: association only
[6] = Relative Association IC50 (300 sec), Table A, EphrinB2-EphB2
[7] = Absolute AUC/IC50, Table A, EphrinB2-EphB2
[8] = Relative Dissociation IC50 (450 sec), Table A, EphrinB2-EphB2
[9] = tetramerization inhibitor IC50 (relative), association step, surmountable tetramer

Row | SMILES | EphB2 Inhibition Percent, Inhibition of Association ONLY (EphrinB2-EphB2 [1]) | EphB2 Inhibition Percent, Inhibition of Association-Dissociation (EphrinB2-EphB2 [1]) | IC50 (EphrinB2-EphB2 [2]; [3]) [nM] | IC50 (EphrinB2-EphB2 [2]; [4]) [nM] | IC50 (EphrinB2-EphB2 [2]; [5]) [nM] | IC50 (EphrinB2-EphB2 [2]; [6]) [nM] | EphB4 Inhibition Percent, Inhibition of Association ONLY (EphrinB2-EphB4) | EphB4 Inhibition Percent, Inhibition of Association-Dissociation (EphrinB2-EphB4) | EphB1 Inhibition Percent, Inhibition of Association ONLY (EphrinB2-EphB1) | EphB1 Inhibition Percent, Inhibition of Association-Dissociation (EphrinB2-EphB1) | IC50 (EphrinB2-EphB2 [2]; [7]) [nM] | IC50 (EphrinB2-EphB2 [2]; [8]) [nM] | IC50 (EphrinB2-EphB2 [2]; [9]) [nM] | selectivity among EphrinB2-EphB1/B2/B4 (EphrinB2-EphB4; 3.2 μM) | tetramerization inhibitor activity (EphrinB2-EphB2 [2]) | disruption of unsurmountable tetramer (EphrinB2-EphB2 [2]; 0.8-3.2 μM, listed as A19-L)
1 | Oc1ccc(CN2CCN(c3ccc(Br)cn3)CC2)c2cccnc12 [Compound 34, 5-((4-(5-bromopyridin-2-yl)piperazin-1-ium-1-yl)methyl)-8-hydroxyquinolin-1-ium chloride] | 69.4% | 81.6% | 2820 | 2630 | 1700 | 2090 | 20.9% | 36.9% | 46.4% | 58.6% |  |  |  |  |  | 
2 | O=[N+]([O-])c1ccc(N2CCN(Cc3ccc(O)c4ncccc34)CC2)cc1 [Compound 38, 8-hydroxy-5-((4-(4-nitrophenyl)piperazin-1-ium-1-yl)methyl)quinolin-1-ium chloride] | 54.3% | 72.1% | 2290 | 1860 | 1200 | 1230 | 9.6% | 17.5% | 24.8% | 43.2% | 2180 | 1470 |  |  |  | 
3 | Nc1ccc(N2CCN(Cc3ccc(O)c4ncccc34)CC2)cc1 [Compound 39, 5-((4-(4-aminophenyl)piperazin-1-yl)methyl)quinolin-8-ol] | 33.9% and 31.2% | 46.4% and 45.6% | 3020 | 2830 | 1700 | 2750 | 0.4% and 0% | 6.9% and 5.5% |  | 16.9% and 8.0% | 3090 | 2250 | ~2000 | less action toward EphB4 and EphB1 but high specificity for EphB2 |  | 
4 | Oc1c(Br)cc(CN2CCN(Cc3ccc(Br)cc3)CC2)c2cccnc12 [Compound 45, 7-bromo-5-((4-(4-bromobenzyl)piperazin-1-ium-1-yl)methyl)-8-hydroxyquinolin-1-ium chloride] | 62.1% | 77.1% | 790 | 720 |  | 560 | 4.9% | 28.3% | 37.3% | 49.9% | 760 | 590 |  |  |  | 
5 | Oc1c(I)cc(CN2CCN(Cc3ccc(Br)cc3)CC2)c2cccnc12 [Compound 46, 5-((4-(4-bromobenzyl)piperazin-1-yl)methyl)-7-iodoquinolin-8-ol] | 53.0% | 69.6% | 720 | 690 | 520 | 480 | 18.1% | 32.0% | 51.6% | 57.2% | 630 | 510 |  |  | exhibit strong IC50 values | 
6 | O=C(c1ccc(O)c2ncccc12)N1CCOCC1 [Compound 53, (8-hydroxyquinolin-5-yl)(morpholino)methanone] |  | 65.3% and 40.6% | 3020 | 2340 | 1860 | 1950 |  | 16.8% and 12.5% |  | 38.7% and 26.3% | 2820 | 1620 | ~1600 |  |  | slight ability to disrupt the unsurmountable tetramer; also recorded: able to inhibit a small amount of the EphrinB2-EphB2 unsurmountable tetramer
7 | Cc1ccc2c(CN3CCOCC3)cc(Br)c(O)c2n1 [Compound 57, 7-bromo-2-methyl-5-(morpholinomethyl)quinolin-8-ol] | 1.4% | 20.3% | > 3200 | > 3200 | 2240 | > 3200 | 0*% | 8.7% | 0*% | 15.3% | > 3200 | > 3200 | > 3000 |  |  | 
